This passage reports IC50 results from patent publication US10112899B2 (ViiV HEALTHCARE UK LIMITED, priority 2014, dated 2018).

SMILES strings stand for the structures.

One test concerns HIV in the HTLV-1 transformed cell line MT-4. The test can be described thus: organism not typed. Format: cell-based. Particulars: MT4, 96 h, MT-4 cells; luciferase/cell titer glo readout after 96 hours; 10 point dose response.
With `COc1cccc(C(=O)N2Cc3c(C)c(-c4ccc(C)cc4)c([C@H](OC(C)(C)C)C(=O)O)c(C)c3C2)c1OC` [Example 284, (S)-2-(tert-butoxy)-2-(2-(2,3-dimethoxybenzoyl)-4,7-dimethyl-6-(p-tolyl)isoindolin-5-yl)acetic acid], half-maximal inhibition (IC50) required 48 nM. That is a double-digit nanomolar value. `Cc1ccc(-c2c(C)c3c(c(C)c2[C@H](OC(C)(C)C)C(=O)O)CN(C(=O)OCC(C)(C)C)C3)cc1` [Example 287, (S)-2-(tert-butoxy)-2-(4,7-dimethyl-2-((neopentyloxy)carbonyl)-6-(p-tolyl)isoindolin-5-yl)acetic acid] yielded an IC50 of 5 nM. `Cc1ccc(-c2c(C)c3c(c(C)c2[C@H](OC(C)(C)C)C(=O)O)CN(C(=S)c2cccc(F)c2)C3)cc1` [Example 288, (S)-2-(tert-butoxy)-2-(2-(3-fluorophenylcarbonothioyl)-4,7-dimethyl-6-(p-tolyl)isoindolin-5-yl)acetic acid] returned an IC50 of 15 nM.

Compound `Cc1ccc(-c2c(C)c3c(c(C)c2[C@H](OC(C)(C)C)C(=O)O)CN(S(=O)(=O)N2CCC(F)(F)C2)C3)cc1` [Example 289, (S)-2-(tert-butoxy)-2-(2-((3,3-difluoropyrrolidin-1-yl)sulfonyl)-4,7-dimethyl-6-(p-tolyl)isoindolin-5-yl)acetic acid] came in with an IC50 of 14 nM.

In turn, `Cc1ccc(-c2c(C)c3c(c(C)c2[C@H](OC(C)(C)C)C(=O)O)CN(C(=O)NCc2ncccn2)C3)cc1` [Example 290, (S)-2-(tert-butoxy)-2-(4,7-dimethyl-2-((pyrimidin-2-ylmethyl)carbamoyl)-6-(p-tolyl)isoindolin-5-yl)acetic acid] gave an IC50 of 2560 nM.

Consider `Cc1ccc(-c2c(C)c3c(c(C)c2[C@H](OC(C)(C)C)C(=O)O)CN(C(=O)N2CCC(C)(C)C2)C3)cc1` [Example 291, (S)-2-(tert-butoxy)-2-(2-(3,3-dimethylpyrrolidine-1-carbonyl)-4,7-dimethyl-6-(p-tolyl)isoindolin-5-yl)acetic acid], for which the IC50 amounted to 5 nM. This IC50 lies about 510-fold lower than the previous one. The same measure, in the same setting: the same measure for `Cc1ccc(-c2c(C)c3c(c(C)c2[C@H](OC(C)(C)C)C(=O)O)CN(C(=O)N2CCC[C@H]2C)C3)cc1` [Example 292, (S)-2-(tert-butoxy)-2-(4,7-dimethyl-2-((R)-2-methylpyrrolidine-1-carbonyl)-6-(p-tolyl)isoindolin-5-yl)acetic acid]: 5 nM; for `Cc1ccc(-c2c(C)c3c(c(C)c2[C@H](OC(C)(C)C)C(=O)O)CN(C(=O)N2CCCC[C@@H]2C)C3)cc1` [Example 293, (S)-2-(tert-butoxy)-2-(4,7-dimethyl-2-((S)-2-methylpiperidine-1-carbonyl)-6-(p-tolyl)isoindolin-5-yl)acetic acid]: 4 nM. Same read-out and setting: to `Cc1ccc(-c2c(C)c3c(c(C)c2[C@H](OC(C)(C)C)C(=O)O)CN(C(=O)N2CC[C@H](F)C2)C3)cc1` [Example 294, (S)-2-(tert-butoxy)-2-(2-((S)-3-fluoropyrrolidine-1-carbonyl)-4,7-dimethyl-6-(p-tolyl)isoindolin-5-yl)acetic acid] belongs 4 nM. The same measure, in the same setting: to `Cc1c2c(c(C)c([C@H](OC(C)(C)C)C(=O)O)c1-c1ccc3c4c(ccnc14)CCO3)CN(C(=O)c1cccc(F)c1)C2` [Example 299, (2S)-2-(tert-butoxy)-2-(6-(2,3-dihydropyrano[4,3,2-de]quinolin-7-yl)-2-(3-fluorobenzoyl)-4,7-dimethylisoindolin-5-yl)acetic acid] belongs 14 nM; to `Cc1c2c(c(C)c([C@H](OC(C)(C)C)C(=O)O)c1C1=CCC(C)(C)CC1)CN(C(=O)c1cccc(F)c1)C2` [Example 302, (S)-2-(tert-butoxy)-2-(6-(4,4-dimethylcyclohex-1-en-1-yl)-2-(3-fluorobenzoyl)-4,7-dimethylisoindolin-5-yl)acetic acid], 4 nM.

Consider `Cc1c2c(c(C)c([C@H](OC(C)(C)C)C(=O)O)c1-c1ccc3c(c1)CCCO3)CN(C(=O)c1cccc(F)c1)C2` [Example 304, (S)-2-(tert-butoxy)-2-(6-(chroman-6-yl)-2-(3-fluorobenzoyl)-4,7-dimethylisoindolin-5-yl)acetic acid], for which it took 4 nM to reach half-maximal inhibition (IC50). This lies in the single-digit nanomolar range. On the same count and under the same terms, to `Cc1c(-c2c(C)c3c(c(C)c2[C@H](OC(C)(C)C)C(=O)O)CN(C(=O)c2cccc(F)c2)C3)ccc2c1CCCO2` [Example 305, (2S)-2-(tert-butoxy)-2-(2-(3-fluorobenzoyl)-4,7-dimethyl-6-(5-methylchroman-6-yl)isoindolin-5-yl)acetic acid] belongs 2 nM; to `Cc1c2c(c(C)c([C@H](OC(C)(C)C)C(=O)O)c1C1=CCC(C)(C)CC1)CN(C(=O)c1cccc3c1OCO3)C2` [Example 307, (S)-2-(2-(benzo[d][1,3]dioxole-4-carbonyl)-6-(4,4-dimethylcyclohex-1-en-1-yl)-4,7-dimethylisoindolin-5-yl)-2-(tert-butoxy)acetic acid], 4 nM; to `Cc1c2c(c(C)c([C@H](OC(C)(C)C)C(=O)O)c1-c1ccc(Cl)cc1)CN(C(=O)c1cccc3c1OCO3)C2` [Example 308, (S)-2-(2-(benzo[d][1,3]dioxole-4-carbonyl)-6-(4-chlorophenyl)-4,7-dimethylisoindolin-5-yl)-2-(tert-butoxy)acetic acid], 4 nM.

`Cc1ccc(-c2c(C)c3c(c(C)c2[C@H](OC(C)(C)C)C(=O)O)CN(C(=O)c2cccc4c2OCO4)C3)c(Cl)c1` [Example 309, (2S)-2-(2-(benzo[d][1,3]dioxole-4-carbonyl)-6-(2-chloro-4-methylphenyl)-4,7-dimethylisoindolin-5-yl)-2-(tert-butoxy)acetic acid] came in with an IC50 of 4 nM. For `Cc1c(-c2c(C)c3c(c(C)c2[C@H](OC(C)(C)C)C(=O)O)CN(C(=O)c2cccc4c2OCO4)C3)cc(F)c2c1NCCO2` [Example 310, (2S)-2-(2-(benzo[d][1,3]dioxole-4-carbonyl)-6-(8-fluoro-5-methyl-3,4-dihydro-2H-benzo[b][1,4]oxazin-6-yl)-4,7-dimethylisoindolin-5-yl)-2-(tert-butoxy)acetic acid], the IC50 came to 18 nM. This IC50 lies about 4.5-fold higher than the previous one.

In turn, `Cc1c2c(c(C)c([C@H](OC(C)(C)C)C(=O)O)c1-c1ccc3c(c1)CCCO3)CN(C(=O)N1CCC(F)(F)C1)C2` [Example 313, (S)-2-(tert-butoxy)-2-(6-(chroman-6-yl)-2-(3,3-difluoropyrrolidine-1-carbonyl)-4,7-dimethylisoindolin-5-yl)acetic acid] yielded an IC50 of 4 nM. The same measure, in the same setting: the same measure for `Cc1ccc(-c2c(C)c3c(c(C)c2[C@H](OC(C)(C)C)C(=O)O)CN(C(=O)N2CCC(F)(F)C2)C3)c(Cl)c1` [Example 314, (2S)-2-(tert-butoxy)-2-(6-(2-chloro-4-methylphenyl)-2-(3,3-difluoropyrrolidine-1-carbonyl)-4,7-dimethylisoindolin-5-yl)acetic acid]: 4 nM; for `Cc1c(-c2c(C)c3c(c(C)c2[C@H](OC(C)(C)C)C(=O)O)CN(C(=O)N2CCC(F)(F)C2)C3)cc(F)c2c1NCCO2` [Example 315, (2S)-2-(tert-butoxy)-2-(2-(3,3-difluoropyrrolidine-1-carbonyl)-6-(8-fluoro-5-methyl-3,4-dihydro-2H-benzo[b][1,4]oxazin-6-yl)-4,7-dimethylisoindolin-5-yl) acetic acid]: 15 nM; for `Cc1c2c(c(C)c([C@H](OC(C)(C)C)C(=O)O)c1-c1ccc3c(c1)CCCO3)CN(C(=O)N1CCCCC1)C2` [Example 317, (S)-2-(tert-butoxy)-2-(6-(chroman-6-yl)-4,7-dimethyl-2-(piperidine-1-carbonyl)isoindolin-5-yl)acetic acid]: 3 nM. The same measure, in the same setting: to `Cc1c(-c2c(C)c3c(c(C)c2[C@H](OC(C)(C)C)C(=O)O)CN(C(=O)N2CCCCC2)C3)cc(F)c2c1NCCO2` [Example 318, (2S)-2-(tert-butoxy)-2-(6-(8-fluoro-5-methyl-3,4-dihydro-2H-benzo[b][1,4]oxazin-6-yl)-4,7-dimethyl-2-(piperidine-1-carbonyl)isoindolin-5-yl)acetic acid] belongs 5 nM.

In turn, `Cc1c(-c2c(C)c3c(c(C)c2[C@H](OC(C)(C)C)C(=O)O)CN(C(=O)N2CCCCC2)C3)ccc2c1NCCO2` [Example 319, (2S)-2-(tert-butoxy)-2-(4,7-dimethyl-6-(5-methyl-3,4-dihydro-2H-benzo[b][1,4]oxazin-6-yl)-2-(piperidine-1-carbonyl)isoindolin-5-yl)acetic acid] gave an IC50 of 4 nM. The IC50 values of the last two compounds are within 1.5-fold of each other.

Consider `Cc1c(-c2c(C)c3c(c(C)c2[C@H](OC(C)(C)C)C(=O)O)CN(C(=O)N2CCC(F)(F)C2)C3)ccc2c1CCCO2` [Example 320, (2S)-2-(tert-butoxy)-2-(2-(3,3-difluoropyrrolidine-1-carbonyl)-4,7-dimethyl-6-(5-methylchroman-6-yl)isoindolin-5-yl)acetic acid], for which 3 nM corresponded to half-maximal inhibition (IC50). For the compound `Cc1c(-c2c(C)c3c(c(C)c2[C@H](OC(C)(C)C)C(=O)O)CN(C(=O)N2CCCCC2)C3)ccc2c1CCCO2` [Example 321, (2S)-2-(tert-butoxy)-2-(4,7-dimethyl-6-(5-methylchroman-6-yl)-2-(piperidine-1-carbonyl)isoindolin-5-yl)acetic acid], the concentration for half-maximal inhibition (IC50) was 2 nM.

Still in this test, the particulars now being: MT-4 cells; luciferase/cell titer glo readout after 96 hours; 10 point dose response.
Consider `Cc1c(-c2c(C)c3c(c(C)c2[C@H](OC(C)(C)C)C(=O)O)CN(C(=O)c2cccc(F)c2)C3)ccc2c1NCCO2` [Example 303, (2S)-2-(tert-butoxy)-2-(2-(3-fluorobenzoyl)-4,7-dimethyl-6-(5-methyl-3,4-dihydro-2H-benzo[b][1,4]oxazin-6-yl)isoindolin-5-yl)acetic acid], for which it took 5 nM to reach half-maximal inhibition (IC50). That is a single-digit nanomolar value. In turn, `Cc1c(-c2c(C)c3c(c(C)c2[C@H](OC(C)(C)C)C(=O)O)CN(C(=O)c2cccc(F)c2)C3)ccc2c1NCCO2` [Example 311, (2S)-2-(tert-butoxy)-2-(2-(3-fluorobenzoyl)-4,7-dimethyl-6-(5-methyl-3,4-dihydro-2H-benzo[b][1,4]oxazin-6-yl)isoindolin-5-yl)acetic acid] registered an IC50 of 15 nM. On to `Cc1ccc(-c2c(C)c3c(c(C)c2[C@H](OC(C)(C)C)C(=O)O)CN(C(=O)N2CCCCC2)C3)c(Cl)c1` [Example 316, (2S)-2-(tert-butoxy)-2-(6-(2-chloro-4-methylphenyl)-4,7-dimethyl-2-(piperidine-1-carbonyl)isoindolin-5-yl)acetic acid], for which half-maximal inhibition (IC50) required 41 nM.
